In patent publication US20240150346A1, “CLASS OF HETEROAROMATIC COMPOUND, PREPARATION METHOD THEREFOR AND USE THEREOF” (INNOVSTONE THERAPEUTICS LIMITED, priority 2021, published 2024):

Molecular target: T1, human-derived receptor TLR7 (Homo sapiens, UniProt Q9NYK1)
T1 construct: host or cells: HEK-Blue hTLR7 cells (HEK293-derived reporter line)
T1 sequence (Q9NYK1 27-1049): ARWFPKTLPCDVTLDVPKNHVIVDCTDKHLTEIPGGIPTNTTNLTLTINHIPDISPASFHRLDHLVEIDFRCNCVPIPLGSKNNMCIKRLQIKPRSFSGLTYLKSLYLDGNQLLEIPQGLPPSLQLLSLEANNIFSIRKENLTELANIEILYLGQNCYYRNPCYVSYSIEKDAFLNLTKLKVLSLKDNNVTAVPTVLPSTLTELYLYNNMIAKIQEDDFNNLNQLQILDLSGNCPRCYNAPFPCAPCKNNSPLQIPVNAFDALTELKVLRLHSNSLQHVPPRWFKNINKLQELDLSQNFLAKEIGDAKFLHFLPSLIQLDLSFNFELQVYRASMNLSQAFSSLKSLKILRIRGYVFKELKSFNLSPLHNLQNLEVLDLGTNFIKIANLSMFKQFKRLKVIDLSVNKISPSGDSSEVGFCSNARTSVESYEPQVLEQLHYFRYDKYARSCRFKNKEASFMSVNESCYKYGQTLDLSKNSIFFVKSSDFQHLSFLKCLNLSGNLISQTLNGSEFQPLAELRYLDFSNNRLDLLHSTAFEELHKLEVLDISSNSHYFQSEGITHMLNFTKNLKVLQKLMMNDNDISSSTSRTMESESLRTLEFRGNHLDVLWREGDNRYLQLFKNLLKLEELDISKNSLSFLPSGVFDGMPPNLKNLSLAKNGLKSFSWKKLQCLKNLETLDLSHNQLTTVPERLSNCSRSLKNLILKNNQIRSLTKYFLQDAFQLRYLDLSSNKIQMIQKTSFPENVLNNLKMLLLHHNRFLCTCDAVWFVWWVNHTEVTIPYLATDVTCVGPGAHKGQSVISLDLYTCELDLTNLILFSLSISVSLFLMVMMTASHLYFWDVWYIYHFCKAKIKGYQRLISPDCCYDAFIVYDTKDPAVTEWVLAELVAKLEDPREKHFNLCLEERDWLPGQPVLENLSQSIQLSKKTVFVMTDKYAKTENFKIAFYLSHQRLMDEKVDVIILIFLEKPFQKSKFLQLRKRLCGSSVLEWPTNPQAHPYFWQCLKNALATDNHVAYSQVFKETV
Experiment: Assay on agonistic activity for human-derived receptor TLR7 (HEK-Blue hTLR7 cells, HEK-Blue Detection Medium)
Assay type: cell-based
Conditions: 16 h incubation, absorbance at 655 nm, read-out: EC50
Protocol: HEK-Blue™ hTLR7 cells (InvivoGen, hkb-htlr7) were cultured in a DMEM complete medium (Gibco, 12100) containing 10% FBS (Invitrogen, 10099141), 1% P/S (Invitrogen, 15140122), 10 μg/mL Blasticidin (InvivoGen, ant-bl-1), 100 μg/mL Zeocin (InvivoGen, ant-zn-1), and 100 μg/mL Normocin (InvivoGen, ant-nr-1). The cells were cultured in an incubator at 37° C. with 5% CO2. When HEK-Blue™ hTLR7 cells reached a growth density of 70%-80%, cell passage was needed.
The agonistic activity for the human-derived receptor TLR7 by HEK-Blue™ hTLR7 cells was assayed by HEK-Blue™ Detection Medium (InvivoGen, hd-det2). First, a bag of HEK-Blue™ Detection Medium powder was dissolved in 50 mL of ultra-pure sterile water for complete dissolution, and then the dissolved medium was filtered into a new 50 mL centrifuge tube through a 0.22 μm filter. Finally, antibiotics were added into the filtered detection medium until the final concentration was 1% for P/S and 100 μg/mL for Normocin. HEK-Blue™ Detection Medium was pre-heated to 37° C. in advance on the day of the assay on the activity for the TLR7 receptor, and the temperature was always maintained at 37° C.
The compound powder was dissolved in 100% DMSO (Sigma, D2650-100ML) to obtain a 10 mM stock solution, and the compound was completely dissolved by shaking with an oscillator. The stock solution of the compound was subjected to a 5-fold dilution to 2 mM with 100% DMSO. This was followed by a 3-fold serial dilution for a total of 8 concentration gradients. Then, each of the concentration gradients was subjected to a 20-fold dilution to 100 μM, 33.3 μM, 11.1 μM, 3.7 μM, 1.23 μM, […], 0.114 μM, and 0.05 μM using HEK-Blue™ Detection Medium. 20 μL of each of the dilutions was added to a 96-well cell culture plate (Corning, 3599).
On the day of the assay on the agonistic activity for the human-detived receptor TLR7, HEK-Blue™ hTLR7 cells has a growth density of 70%-80%, and the cell medium was removed. 1 mL of cell dissociation buffer (Gibco, 13151-014) was added to each 100 mm cell culture dish, and the cells were incubated in an incubator at 37° C. for 5 min. The cells were pipetted using a DMEM cell medium to obtain a single cell suspension, which was then centrifuged at 1000 rpm for 10 min to collect the cell pellet. The cell pellet was resuspended with HEK-Blue™ Detection Medium pre heated to 37° C. The cells were counted and diluted to 220,000 cells/mL. Finally, 180 μL of cell suspension (40,000 cells/well) was added to each well of the 96-well cell culture plate to which the compound had been added, and the cell suspension was mixed with the compound using a pipettor. Final concentrations of the compound were 10 μM, 3.3 μM, 1.1 μM, 0.37 μM, 0.12 μM, 0.04 μM, 0.01 μM, and 0.005 μM. After incubation in an incubator at 37° C. for 16 h, the absorbance was read at 655 nm using an M5e microplate reader (MD, USA).
The EC50 of the compound was calculated using the software GraphPad Prism (GraphPad Software, USA). The background reading of the detection culture was subtracted from the absorbance readings at 655 nm of all wells of the 96-well plate, the ratio of each well to the negative control well (the well without the compound) was calculated, and then the percentage of the ratio of each well to the positive control well (the well treated with 10 μM positive compound), i.e., the percentage of activity, was calculated. Finally, the sigmoidal dose-response (variable slope) curve between the percentage of activity and the concentration of the compound was calculated using the software GraphPad Prism to calculate the EC50 of the compound. […]

Structure (SMILES)	EC50 [nM]
C=CCCSc1nc2c(N)nc3ccccc3c2n1Cc1ccc(CN2CCCC2)cc1 [Example 165]	50 to 100
CCSc1nc2c(N)nc3ccccc3c2n1Cc1ccc(CN(C)C)cc1 [Example 190]	50 to 100
CSc1nc2c(N)nc3ccccc3c2n1Cc1ccc(OCCN(C)C)nc1 [Example 223]	50 to 100
C=CCSc1nc2c(N)nc3ccccc3c2n1Cc1ccc(CN2CC[C@@H](F)C2)cc1 [Example 211]	50 to 100
Nc1nc2ccccc2c2c1nc(SCCC(F)(F)F)n2Cc1ccc(CN2CCCC2)cc1 [Example 181]	< 50
CCCCOc1nc(N)c2c(n1)CN(Cc1ccc(CN3CCCC3)c(C)c1)C(=O)N2 [Example 66]	50 to 100
CSc1nc2c(N)nc3ccccc3c2n1Cc1ccc(CN2CCNCC2)cc1 [Example 213]	50 to 100
CCSc1nc2c(N)nc3ccccc3c2n1Cc1ccc(CN2CC(O)C2)cc1 [Example 207]	50 to 100
Nc1nc2ccccc2c2c1[nH]c(=S)n2Cc1ccc(CN2CCCC2)cc1 [Example 155, 4-amino-1-(4-(pyrrolidin-1-ylmethyl)benzyl)-1,3-dihydro-2H-imidazo[4,5-c]quinoline-2-thione]	< 50
COc1cc(CNC(C)C)ccc1Cn1c(SC)nc2c(N)nc3ccccc3c21 [Example 241]	50 to 100
CCCCOc1nc(N)c2[nH]c(=O)n(Cc3ccc(CN4CCN(C(=O)COC)CC4)s3)c2n1 [Example 48]	< 50
CCN(CC)Cc1ccc(Cn2c(=O)[nH]c3c(N)nc4ccccc4c32)cc1C [Example 113]	50 to 100
Nc1nc2ccccc2c2c1nc(SCCF)n2Cc1ccc(CN2CCCC2)cc1 [Example 178]	50 to 100
CCCCOc1nc(N)c2[nH]c(=O)n(Cc3ccc(CN4CCN(C(=O)CO)CC4)s3)c2n1 [Example 47]	< 50
CCCCOc1nc(N)c2c(n1)CN(Cc1ccc(C(=O)N3CCCC3)cc1)C(=O)N2 [Example 50, 8-amino-6-butoxy-3-(4-(pyrrolidin-1-ylcarbonyl)benzyl)-3,4-dihydropyrimido[5,4-d]pyrimidin-2(1H)-one]	< 50
CCCCSc1nc2c(N)nc3ccccc3c2n1Cc1ccc(CN2CCCC2)cc1 [Example 161]	50 to 100
CCCCOc1nc(N)c2[nH]c(=O)n(Cc3ccc(CN4CCNCC4)s3)c2n1 [Example 46]	< 50
COc1cc(C2CCN(C)CC2)ccc1Cn1c(SC)nc2c(N)nc3ccccc3c21 [Example 246]	50 to 100
CCCCOc1nc(N)c2[nH]c(=O)n(Cc3ccc(CN4CCN(C(=O)CN)CC4)s3)c2n1 [Example 45, 6-amino-2-butoxy-9-((5-((4-glycylpiperazin-1-yl)methyl)thien-2-yl)methyl)-7,9-dihydro-8H-purin-8-one]	< 50
COc1cc(CN2CCCC2)ccc1Cn1c(SC)nc2c(N)nc3ccccc3c21 [Example 233]	< 50
CCSc1nc2c(N)nc3ccccc3c2n1Cc1ccc(CN2CCCC2)cc1 [Example 156]	< 50
COc1cc(CN2CC[C@H](O)C2)ccc1Cn1c(SC)nc2c(N)nc3ccccc3c21 [Example 245]	50 to 100

Structure (SMILES)	EC50 [nM]
COc1cc(OCCN(C)C)ccc1Cn1c(SC)nc2c(N)nc3ccccc3c21 [Example 248]	50 to 100
CCSc1nc2c(N)nc3ccccc3c2n1Cc1ccc(CN2CC[C@H](O)C2)cc1 [Example 209]	50 to 100
N#CCCSc1nc2c(N)nc3ccccc3c2n1Cc1ccc(CN2CCCC2)cc1 [Example 177]	50 to 100
Nc1nc2ccccc2c2c1nc(SCC1CC1)n2Cc1ccc(CN2CCCC2)cc1 [Example 163]	< 50
CCSc1nc2c(N)nc3ccccc3c2n1Cc1ccc(CNC(C)C)cc1 [Example 191]	< 50
C=CCSc1nc2c(N)nc3ccccc3c2n1Cc1ccc(CN2CCCC2)cc1 [Example 166]	< 50
CCCCOc1nc(N)c2[nH]c(=O)n(Cc3ccc(CN4CCC(O)C4)s3)c2n1 (centres unmarked) [Example 44, 6-amino-2-butoxy-9-((5-((3-hydroxypyrrolidin-1-yl)methyl)thien-2-yl)methyl)-7,9-dihydro-8H-purin-8-one]	< 50
CSc1nc2c(N)nc3ccccc3c2n1Cc1ccc(-c2cnn(CCNC3CCC3)c2)cc1 [Example 196]	50 to 100
CSc1nc2c(N)nc3ccccc3c2n1Cc1ccc(CN2CC(O)C2)cc1 [Example 206]	50 to 100
COc1cc(CN2CCN(C)CC2)ccc1Cn1c(SC)nc2c(N)nc3ccccc3c21 [Example 247]	50 to 100
CCCCOc1nc(N)c2c(n1)CN(Cc1ccc(C)c(CN3CCCC3)c1)C(=O)N2 [Example 78]	< 50
CCCCOc1nc(N)c2[nH]c(=O)n(Cc3ccc(CN4CCCC4)s3)c2n1 [Example 43, 6-amino-2-butoxy-9-((5-(pyrrolidin-1-ylmethyl)thien-2-yl)methyl)-7,9-dihydro-8H-purin-8-one]	< 50
COCSc1nc2c(N)nc3ccccc3c2n1Cc1ccc(CN2CCCC2)cc1 [Example 157]	< 50
CSc1nc2c(N)nc3ccccc3c2n1Cc1ccc(CN2CCNCC2)s1 [Example 220]	50 to 100
CSc1nc2c(N)nc3ccccc3c2n1Cc1ccc(N2CCN(C)CC2)cc1 [Example 212]	< 50
C=CCSc1nc2c(N)nc3ccccc3c2n1Cc1ccc(CN2CCNCC2)cc1 [Example 215]	< 50
CCCCOc1nc(N)c2c(n1)CN(Cc1ccc(Cn3ccnc3)c(C)c1)C(=O)N2 [Example 76]	50 to 100
CSc1nc2c(N)nc3ccccc3c2n1Cc1ccc(CN(C)C)cc1 [Example 189]	50 to 100
COc1cc(CN2CC(O)C2)ccc1Cn1c(SC)nc2c(N)nc3ccccc3c21 [Example 244]	50 to 100
CCSc1nc2c(N)nc3ccccc3c2n1Cc1ccc(CN2CCNCC2)cc1 [Example 214]	50 to 100
CCCCOc1nc(N)c2c(n1)N(Cc1ccc(Oc3ccc(CNC)cc3)cc1)CC(=O)N2 [Example 252, 4-amino-2-butoxy-8-(4-(4-((methylamino)methyl)phenoxy)benzyl)-7,8-dihydropteridin-6(5H)-one]	< 50
COc1cc(CN2CCNCC2)ccc1Cn1c(SC)nc2c(N)nc3ccccc3c21 [Example 238]	50 to 100
